{"source": "paper PMC10223164", "about": "“Exploration of the Transglycosylation Activity of Barley Limit Dextrinase for Production of Novel Glycoconjugates” (Molecules, 2023)", "target": "T1, HvLD (barley limit dextrinase) (Hordeum vulgare, UniProt Q9FYY0)", "T1 sequence (Q9FYY0 1-905 limits assumed)": "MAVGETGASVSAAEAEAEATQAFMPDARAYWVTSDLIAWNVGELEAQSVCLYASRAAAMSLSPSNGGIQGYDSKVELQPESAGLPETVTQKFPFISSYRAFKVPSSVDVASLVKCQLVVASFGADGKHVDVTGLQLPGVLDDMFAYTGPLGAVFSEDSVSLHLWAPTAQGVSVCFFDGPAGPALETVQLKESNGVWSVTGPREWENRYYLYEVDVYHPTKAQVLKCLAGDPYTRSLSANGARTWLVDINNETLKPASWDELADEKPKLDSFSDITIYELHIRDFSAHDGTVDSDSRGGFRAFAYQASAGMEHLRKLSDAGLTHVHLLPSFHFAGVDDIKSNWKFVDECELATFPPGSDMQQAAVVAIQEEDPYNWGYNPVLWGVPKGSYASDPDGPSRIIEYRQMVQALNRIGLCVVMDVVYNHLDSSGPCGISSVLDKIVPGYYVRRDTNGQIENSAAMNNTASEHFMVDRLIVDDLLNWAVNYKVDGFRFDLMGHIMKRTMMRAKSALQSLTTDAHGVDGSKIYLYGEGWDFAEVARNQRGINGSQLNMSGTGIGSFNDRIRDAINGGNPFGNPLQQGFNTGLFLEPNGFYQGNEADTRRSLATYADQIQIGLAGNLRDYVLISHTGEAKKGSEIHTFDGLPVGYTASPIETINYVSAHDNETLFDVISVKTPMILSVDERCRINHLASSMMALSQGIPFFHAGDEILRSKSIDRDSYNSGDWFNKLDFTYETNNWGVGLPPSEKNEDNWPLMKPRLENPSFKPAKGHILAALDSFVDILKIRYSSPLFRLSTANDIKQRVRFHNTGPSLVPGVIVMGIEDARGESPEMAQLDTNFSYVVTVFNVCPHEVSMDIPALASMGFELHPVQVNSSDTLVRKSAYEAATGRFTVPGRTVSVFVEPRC", "experiment": "LC-ESI-MS with UV quantification of transglycosylation products", "format": "biochemical", "details": "glycosyl donor, 10 mg/mL; acceptors pNP-sugars 8-14 mM; 20 mM sodium acetate pH 5.5; 5 mM CaCl2; 37 °C, 2 h", "data": [{"smiles": "OC[C@H]1O[C@H](OC[C@H]2O[C@H](O[C@H]3[C@H](O)[C@@H](O)[C@@H](O[C@H]4[C@H](O)[C@@H](O)[C@@H](OC[C@H]5O[C@H](O[C@H]6[C@H](O)[C@@H](O)[C@@H](O[C@H]7[C@H](O)[C@@H](O)C(O)O[C@@H]7CO)O[C@@H]6CO)[C@H](O)[C@@H](O)[C@@H]5O)O[C@@H]4CO)O[C@@H]3CO)[C@H](O)[C@@H](O)[C@@H]2O)[C@H](O)[C@@H](O)[C@@H]1O", "note": "(stereo partly drawn) [G1G3G3, 6^3-α-(6^3-α-D-glucosyl-maltotriosyl)-maltotriose]", "values": [{"measurement": "LC-ESI-MS with UV quantification of transglycosylation products", "value": "G1G3G3 could serve as donor in HvLD TG reactions with all five pNP-sugars"}]}]}
